Experimental data: patent US20250345426A1, “METHODS FOR MAKING AND USING THERAPEUTIC CELLS” (THE REGENTS OF THE UNIVERSITY OF CALIFORNIA, priority 2022, published 2025)

Columns and labels:
Leu16 CAR-T cells = assay: T-cell subtype distribution and Tn/scm enrichment, Leu16 CAR-T cells; assay type: cell-based, human; details: 6 days of pharmacological modulation, relative to vehicle
Description: (§1) FIG. 3A-G. Pharmacological modulation of Leu16 CAR-T cells modestly dampens tonic signaling while enhancing anti-tumor efficacy. (A) Pictorial representation of the correlation between tonic signaling-modulated rituximab CAR-T cells and in vivo anti-tumor efficacy. (B) Pictorial representation of pharmacological modulation strategy aimed to either increase or decrease Leu16 CAR tonic signaling; c-MYC (MYCi975) and SREBP (betulin) inhibition increased tonic signaling whereas mTORC1 (rapamycin) inhibition decreased tonic signaling in rituximab CAR-T cells. (C) % distribution of T-cell subtypes in CAR^+ T cells after 6 days of pharmacological modulation (left) and Tn/scm enrichment (right). […] (F) Tumor signal (in photons/sec/cm2/sr) in individual animals as quantified by bioluminescence imaging. […]
Antibody staining for flow-cytometry analysis. EGFRt expression was measured with biotinylated cetuximab (Eli Lilly; biotinylated in-house), followed by PE-conjugated streptavidin (Jackson ImmunoResearch #016-110-084). CAR expression was quantified by surface epitope staining using anti-Fc (Alexa Fluor 488, Jackson ImmunoResearch #709-546-098). […] T-cell subtype of CAR-T cells was evaluated by antibody staining for CD45RO (VioBlue®, clone REA611, Miltenyi #130-119-620) and CD62L (APC, clone DREG56, Invitrogen #17-0629-42) after 5-6 days of inhibitor culture (FIG. 1, FIG. 3). […]

Raji lymphoma = Raji lymphoma model in NSG mice treated with inhibitor-treated Leu16 CAR-T cells; assay type: in vivo; details: Raji i.v., two doses of inhibitor-treated Leu16 CAR-T cells, vs vehicle-treated
Description: as §1, with “(right). The bars in FIG. 3C, right graph, represent data from, EGFRt, Leu16-28z (vehicle), Leu16-28z (MYCi975), Leu16-28z (Betulin), and Leu16-28z (Rapamycin), respectively, from left to right. (D) Activation and exhaustion marker expression by CAR^+ T cells in the absence of antigen stimulation after 6 days of pharmacological modulation.” for “(right).”
In vivo studies. […] Tumor progression/regression was monitored with an IVIS Illumina III LT Imaging System (PerkinElmer). […]

rituximab CAR-T cells = assay: Antigen-independent CAR-T cell metabolic activity, rituximab CAR-T cells (data not shown); assay type: cell-based, human
Description: Cell line generation and maintenance. HEK 293T and Raji cells were obtained from ATCC. Leu16 and rituximab scFv-expressing HEK293T cell lines were generated by retroviral transduction of HEK293T cells to express each scFv fused with EGFP via a 2A peptide, and EGFP+ cells were sorted by fluorescence-activated cell sorting (FACS) on a FACSAria (II) cell sorter (BD Bioscience) at the UCLA Flow Cytometry Core Facility. CD20+K562 cells were generated by transduction of K562 cells with a retroviral construct encoding full-length CD20. K562 cells with varying CD20 expression levels were generated by FACS sorting of CD20+K562 into bins of different antigen densities. CHLA-255-Luc-EGFP cells were generated by retroviral transduction of CHLA-255-Luc to express EGFP, and EGFP+ cells were enriched by FACS. HEK 293T cells were cultured in DMEM (HyClone) supplemented with 10% heat-inactivated FBS (HI-FBS; ThermoFisher). CHLA-255-Luc-EGFP cells were cultured in IMDM (ThermoFisher) with 10% HI-FBS. Primary human T cells, Raji, and K562 cells were cultured in RPMI-1640 (Lonza) with 10% HI-FBS. For CAR-T cells used in metabolomics studies, T cells were cultured in RPMI-1640 containing 2 g/L of 1,2-13C-glucose with 10% heat-inactivated dialyzed FBS (HI-dFBS).

| Compound | enrichment of Tn/scm cells (Leu16 CAR-T cells) | in vivo functionality: tumor control and survival (Raji lymphoma) | antigen-independent CAR-T cell metabolic activity (rituximab CAR-T cells) |
| --- | --- | --- | --- |
| C=C(C)[C@@H]1CC[C@]2(CO)CC[C@]3(C)[C@H](CC[C@@H]4[C@@]5(C)CC[C@H](O)C(C)(C)[C@@H]5CC[C@]43C)[C@@H]12 [betulin, Betulin] | increased enrichment | prolonged tumor control and survival | increases |
| MYCi975 | increased enrichment |  |  |
